PubChem BioAssay (NCI)
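Interpolation was linear, between the two tested concentrations surrounding the appropriate level; five concentrations were tested over 48 hours in 96-well plates. GI50: concentration for 50% inhibition of growth. TGI: total growth inhibition.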

How the values were obtained:
Assay in all cases: NCI-60 cell line screen, 48 h
786-0 renal = tested on: 786-0 renal
A498 renal = tested on: A498 renal
A549 NSCLC = tested on: A549 NSCLC
ACHN renal = tested on: ACHN renal
BT-549 breast = tested on: BT-549 breast
CAKI-1 renal = tested on: CAKI-1 renal
CCRF-CEM leukemia = tested on: CCRF-CEM leukemia
COLO 205 colon = tested on: COLO 205 colon
DU-145 prostate = tested on: DU-145 prostate
EKVX NSCLC = tested on: EKVX NSCLC
HCC-2998 colon = tested on: HCC-2998 colon
HCT-116 colon = tested on: HCT-116 colon
HCT-15 colon = tested on: HCT-15 colon
HL-60(TB) leukemia = tested on: HL-60(TB) leukemia
HOP-62 NSCLC = tested on: HOP-62 NSCLC
HOP-92 NSCLC = tested on: HOP-92 NSCLC
HS 578T breast = tested on: HS 578T breast
HT29 colon = tested on: HT29 colon
IGROV1 ovarian = tested on: IGROV1 ovarian
K-562 leukemia = tested on: K-562 leukemia
KM12 colon = tested on: KM12 colon
LOX IMVI melanoma = tested on: LOX IMVI melanoma
M14 melanoma = tested on: M14 melanoma
MALME-3M melanoma = tested on: MALME-3M melanoma
MCF7 breast = tested on: MCF7 breast
MDA-MB-231 breast = tested on: MDA-MB-231 breast
MDA-MB-435 = tested on: MDA-MB-435
MDA-MB-468 breast = tested on: MDA-MB-468 breast
MOLT-4 leukemia = tested on: MOLT-4 leukemia
NCI-H226 lung = tested on: NCI-H226 lung
NCI-H23 lung = tested on: NCI-H23 lung
NCI-H460 lung = tested on: NCI-H460 lung
NCI-H522 lung = tested on: NCI-H522 lung
NCI/ADR-RES ovarian = tested on: NCI/ADR-RES ovarian
OVCAR-3 ovarian = tested on: OVCAR-3 ovarian
OVCAR-4 ovarian = tested on: OVCAR-4 ovarian
OVCAR-5 ovarian = tested on: OVCAR-5 ovarian
OVCAR-8 ovarian = tested on: OVCAR-8 ovarian
PC-3 prostate = tested on: PC-3 prostate
RPMI-8226 leukemia = tested on: RPMI-8226 leukemia
RXF 393 renal = tested on: RXF 393 renal
SF-268 CNS = tested on: SF-268 CNS
SF-295 CNS = tested on: SF-295 CNS
SF-539 CNS = tested on: SF-539 CNS
SK-MEL-2 melanoma = tested on: SK-MEL-2 melanoma
SK-MEL-28 melanoma = tested on: SK-MEL-28 melanoma
SK-MEL-5 melanoma = tested on: SK-MEL-5 melanoma
SK-OV-3 ovarian = tested on: SK-OV-3 ovarian
SN12C renal = tested on: SN12C renal
SNB-19 CNS = tested on: SNB-19 CNS
SNB-75 CNS = tested on: SNB-75 CNS
SR leukemia = tested on: SR leukemia
SW-620 colon = tested on: SW-620 colon
T-47D breast = tested on: T-47D breast
TK-10 renal = tested on: TK-10 renal
U251 CNS = tested on: U251 CNS
UACC-257 melanoma = tested on: UACC-257 melanoma
UACC-62 melanoma = tested on: UACC-62 melanoma
UO-31 renal = tested on: UO-31 renal

SMILES: CC1(C)CC[C@]2(C(=O)O)CC[C@]3(C)C(=CCC4[C@@]5(C)C[C@@H](O)[C@@H]6OC(c7ccc(F)cc7)OC[C@@]6(C)C5CC[C@]43C)C2C1 (stereo partly drawn)
- GI50 (786-0 renal): 7.56 µM
- TGI (786-0 renal): 27.5 µM
- GI50 (A498 renal): 5.41 µM
- TGI (A498 renal): 20.1 µM
- GI50 (A549 NSCLC): 2.81 µM
- TGI (A549 NSCLC): 16.5 µM
- GI50 (ACHN renal): 3.56 µM
- TGI (ACHN renal): 32.5 µM
- GI50 (BT-549 breast): 4.34 µM
- TGI (BT-549 breast): 17.9 µM
- GI50 (CAKI-1 renal): 9.28 µM
- TGI (CAKI-1 renal): 26.3 µM
- GI50 (CCRF-CEM leukemia): 3.58 µM
- TGI (CCRF-CEM leukemia): 25.8 µM
- GI50 (COLO 205 colon): 4.53 µM
- TGI (COLO 205 colon): 17.9 µM
- GI50 (DU-145 prostate): 5.23 µM
- TGI (DU-145 prostate): > 100 µM
- GI50 (EKVX NSCLC): 3.14 µM
- TGI (EKVX NSCLC): 15.3 µM
- GI50 (HCC-2998 colon): 4.34 µM
- TGI (HCC-2998 colon): 14.8 µM
- GI50 (HCT-116 colon): 3.5 µM
- TGI (HCT-116 colon): 13.7 µM
- GI50 (HCT-15 colon): 2.42 µM
- TGI (HCT-15 colon): 11.6 µM
- GI50 (HL-60(TB) leukemia): 2.29 µM
- TGI (HL-60(TB) leukemia): 6.41 µM
- GI50 (HOP-62 NSCLC): 6.68 µM
- TGI (HOP-62 NSCLC): 29.6 µM
- GI50 (HOP-92 NSCLC): 5.32 µM
- TGI (HOP-92 NSCLC): 27.6 µM
- GI50 (HS 578T breast): 5.56 µM
- TGI (HS 578T breast): 48.5 µM
- GI50 (HT29 colon): 5.09 µM
- TGI (HT29 colon): 30.3 µM
- GI50 (IGROV1 ovarian): 7.62 µM
- TGI (IGROV1 ovarian): 24.9 µM
- GI50 (K-562 leukemia): 2.26 µM
- TGI (K-562 leukemia): > 100 µM
- GI50 (KM12 colon): 4.2 µM
- TGI (KM12 colon): 18.9 µM
- GI50 (LOX IMVI melanoma): 4.13 µM
- TGI (LOX IMVI melanoma): 16.2 µM
- GI50 (M14 melanoma): 10.7 µM
- TGI (M14 melanoma): 27 µM
- GI50 (MALME-3M melanoma): 8.39 µM
- TGI (MALME-3M melanoma): 22.9 µM
- GI50 (MCF7 breast): 4.03 µM
- TGI (MCF7 breast): 28.2 µM
- GI50 (MDA-MB-231 breast): 13 µM
- TGI (MDA-MB-231 breast): 28.7 µM
- GI50 (MDA-MB-435): 10.8 µM
- TGI (MDA-MB-435): 23.7 µM
- GI50 (MDA-MB-468 breast): 3.26 µM
- TGI (MDA-MB-468 breast): 19.5 µM
- GI50 (MOLT-4 leukemia): 2.64 µM
- TGI (MOLT-4 leukemia): 12 µM
- GI50 (NCI-H226 lung): 3.96 µM
- TGI (NCI-H226 lung): 23.5 µM
- GI50 (NCI-H23 lung): 4.95 µM
- TGI (NCI-H23 lung): 21.1 µM
- GI50 (NCI-H460 lung): 4.38 µM
- TGI (NCI-H460 lung): 18.1 µM
- GI50 (NCI-H522 lung): 5.21 µM
- TGI (NCI-H522 lung): 23.8 µM
- GI50 (NCI/ADR-RES ovarian): 4.3 µM
- TGI (NCI/ADR-RES ovarian): 22.8 µM
- GI50 (OVCAR-3 ovarian): 4.13 µM
- TGI (OVCAR-3 ovarian): 18.8 µM
- GI50 (OVCAR-4 ovarian): 5.63 µM
- TGI (OVCAR-4 ovarian): 38.4 µM
- GI50 (OVCAR-5 ovarian): 13.3 µM
- TGI (OVCAR-5 ovarian): 33.5 µM
- GI50 (OVCAR-8 ovarian): 6.96 µM
- TGI (OVCAR-8 ovarian): 40.2 µM
- GI50 (PC-3 prostate): 4.18 µM
- TGI (PC-3 prostate): > 100 µM
- GI50 (RPMI-8226 leukemia): 4.35 µM
- TGI (RPMI-8226 leukemia): > 100 µM
- GI50 (RXF 393 renal): 6.66 µM
- TGI (RXF 393 renal): 20.5 µM
- GI50 (SF-268 CNS): 5.3 µM
- TGI (SF-268 CNS): > 100 µM
- GI50 (SF-295 CNS): 3.57 µM
- TGI (SF-295 CNS): 15.9 µM
- GI50 (SF-539 CNS): 6.71 µM
- TGI (SF-539 CNS): 21.3 µM
- GI50 (SK-MEL-2 melanoma): 9.47 µM
- TGI (SK-MEL-2 melanoma): 24.2 µM
- GI50 (SK-MEL-28 melanoma): 12.5 µM
- TGI (SK-MEL-28 melanoma): 25.4 µM
- GI50 (SK-MEL-5 melanoma): 4.13 µM
- TGI (SK-MEL-5 melanoma): 16.2 µM
- GI50 (SK-OV-3 ovarian): 11.6 µM
- TGI (SK-OV-3 ovarian): 39.2 µM
- GI50 (SN12C renal): 7.55 µM
- TGI (SN12C renal): 30.2 µM
- GI50 (SNB-19 CNS): 7.35 µM
- TGI (SNB-19 CNS): > 100 µM
- GI50 (SNB-75 CNS): 2.05 µM
- TGI (SNB-75 CNS): 45.3 µM
- GI50 (SR leukemia): 4.18 µM
- TGI (SR leukemia): 37 µM
- GI50 (SW-620 colon): 6.54 µM
- TGI (SW-620 colon): 30.3 µM
- GI50 (T-47D breast): 11.8 µM
- TGI (T-47D breast): 95.9 µM
- GI50 (TK-10 renal): 10.1 µM
- TGI (TK-10 renal): > 100 µM
- GI50 (U251 CNS): 3.54 µM
- TGI (U251 CNS): 17 µM
- GI50 (UACC-257 melanoma): 10.9 µM
- TGI (UACC-257 melanoma): 31 µM
- GI50 (UACC-62 melanoma): 11.4 µM
- TGI (UACC-62 melanoma): 24.3 µM
- GI50 (UO-31 renal): 4.17 µM
- TGI (UO-31 renal): 21.7 µM
